In ChEMBL document CHEMBL4831488, “Design, synthesis, docking, molecular dynamics and bioevaluation studies on novel N-methylpicolinamide and thienopyrimidine derivatives with inhibiting NF-κB and TAK1 activities: Cheminformatics tools RDKit applied in drug design” (Eur J Med Chem, 2021):
Active and inactive are the calls of the source. The rule behind the calls is not given here.

Experiments:
A549 [1] = assay: Induction of apoptosis in human A549 cells assessed as necrotic cells at 0.6 uM measured by annexinV-FITC/propidium iodide staining based flow cytometry analysis (reference value: 0.42%); format: functional
A549 [2] = assay: Induction of apoptosis in human A549 cells assessed as late apoptotic cells at 0.6 uM measured by annexinV-FITC/propidium iodide staining based flow cytometry analysis (reference value: 0.64%); format: functional
[3] = molecular target: T1, Nuclear factor NF-kappa-B complex (Homo sapiens) (UniProt Q00653+P19838+Q04206); assay: Inhibition of human NF-kB in human A549 cells assessed as suppression of TNF-alpha induced p-65 expression at 0.5 to 5 uM pretreated with compounds for 24 hrs followed by TNF-alpha stimulation for 10 mins by Western blot analysis; format: cell-based; conditions: dose 0.5-5 µM, time 1450.0 min
[4] = molecular target: T1, Nuclear factor NF-kappa-B complex (Homo sapiens); assay: Inhibition of human NF-kB in human A549 cells assessed as suppression of TNF-alpha induced IkBalpha phosphorylation at 0.5 to 5 uM pretreated with compounds for 24 hrs followed by TNF-alpha stimulation for 10 mins by Western blot analysis; format: cell-based; conditions: dose 0.5-5 µM, time 1450.0 min
TAK1-TAB1 fusion protein = TAK1-TAB1 fusion protein (Homo sapiens, UniProt O43318); assay: Inhibition of Tak1/Tab1 (unknown origin) assessed as inhibition of Tak1 kinase activity preincubated for 30 mins followed by addition of MBP protein and ATP and measured after 2 hrs by ADP-Glo kinase assay
A549 [5] = assay: Induction of apoptosis in human A549 cells assessed as late apoptotic cells at 1.2 uM measured by annexinV-FITC/propidium iodide staining based flow cytometry analysis (reference value: 0.64%); format: functional
A549 [6] = assay: Cell cycle arrest in human A549 cells assessed as accumulation at G0/G1 phase at 1.8 uM measured after 24 hrs by PI staining based Flow cytometry method (reference value: 55.54%); format: functional
A549 [7] = assay: Induction of apoptosis in human A549 cells assessed as viable cells at 1.8 uM measured by annexinV-FITC/propidium iodide staining based flow cytometry analysis (reference value: 97.8%); format: functional; conditions: read-out: Activity
A549 [8] = assay: Cell cycle arrest in human A549 cells assessed as accumulation at G0/G1 phase at 0.6 uM measured after 24 hrs by PI staining based Flow cytometry method (reference value: 55.54%); format: functional
A549 [9] = assay: Induction of apoptosis in human A549 cells assessed as early apoptotic cells at 0.6 uM measured by annexinV-FITC/propidium iodide staining based flow cytometry analysis (reference value: 1.17%); format: functional
A549 [10] = assay: Cell cycle arrest in human A549 cells assessed as accumulation at G2/M phase at 1.8 uM measured after 24 hrs by PI staining based Flow cytometry method (reference value: 10.2%); format: functional
A549 [11] = assay: Cell cycle arrest in human A549 cells assessed as accumulation at S phase at 0.6 uM measured after 24 hrs by PI staining based Flow cytometry method (reference value: 34.24%); format: functional
A549 [12] = assay: Cytotoxicity against human A549 cells assessed as inhibition of cell growth measured after 72 hrs by MTT assay; format: functional, cell-based; conditions: Homo sapiens, A549, 72 h; read-out: IC50
A549 [13] = assay: Induction of apoptosis in human A549 cells assessed as necrotic cells at 1.2 uM measured by annexinV-FITC/propidium iodide staining based flow cytometry analysis (reference value: 0.42%); format: functional
A549 [14] = assay: Induction of apoptosis in human A549 cells assessed as early apoptotic cells at 1.8 uM measured by annexinV-FITC/propidium iodide staining based flow cytometry analysis (reference value: 1.17%); format: functional
MDA-MB-231 = assay: Cytotoxicity against human MDA-MB-231 cells assessed as inhibition of cell growth at 20 uM measured after 72 hrs by MTT assay relative to control; format: functional
MAP3K7 [15] = assay: Inhibition of human TAK1 in human A549 cells assessed as suppression of TNF-alpha induced TAK1 expression at 0.5 to 5 uM pretreated with compounds for 24 hrs followed by TNF-alpha stimulation for 10 mins by Western blot analysis; conditions: dose 0.5-5 µM, time 1450.0 min
[16] = molecular target: T1, Nuclear factor NF-kappa-B complex (Homo sapiens); assay: Inhibition of human NF-kB in human A549 cells assessed as suppression of TNF-alpha induced IkBalpha expression at 0.5 to 5 uM pretreated with compounds for 24 hrs followed by TNF-alpha stimulation for 10 mins by Western blot analysis; format: cell-based; conditions: dose 0.5-5 µM, time 1450.0 min
HCT-116 [17] = assay: Cell cycle arrest in human HCT-116 cells assessed as accumulation at G2/M phase at 1.8 uM measured after 24 hrs by PI staining based Flow cytometry method; format: functional
A549 [18] = assay: Induction of apoptosis in human A549 cells assessed as viable cells at 0.6 uM measured by annexinV-FITC/propidium iodide staining based flow cytometry analysis (reference value: 97.8%); format: functional; conditions: read-out: Activity
A549 [19] = assay: Induction of apoptosis in human A549 cells assessed as necrotic cells at 1.8 uM measured by annexinV-FITC/propidium iodide staining based flow cytometry analysis (reference value: 0.42%); format: functional
MAP3K7 [20] = assay: Inhibition of human TAK1 in human A549 cells assessed as suppression of TNF-alpha induced TAK1 phosphorylation at 0.5 to 5 uM pretreated with compounds for 24 hrs followed by TNF-alpha stimulation for 10 mins by Western blot analysis; conditions: dose 0.5-5 µM, time 1450.0 min
[21] = molecular target: T1, Nuclear factor NF-kappa-B complex (Homo sapiens); assay: Inhibition of human NF-kB in human HCT-116 cells assessed as suppression of TNF-alpha induced p-65 phosphorylation at 0.5 to 5 uM pretreated with compounds for 24 hrs followed by TNF-alpha stimulation for 10 mins by Western blot analysis; format: cell-based; conditions: dose 0.5-5 µM, time 1450.0 min
A549 [22] = assay: Cell cycle arrest in human A549 cells assessed as accumulation at S phase at 1.2 uM measured after 24 hrs by PI staining based Flow cytometry method (reference value: 34.24%); format: functional
A549 [23] = assay: Cell cycle arrest in human A549 cells assessed as accumulation at S phase at 1.8 uM measured after 24 hrs by PI staining based Flow cytometry method (reference value: 34.24%); format: functional
HCT-116 [24] = assay: Cytotoxicity against human HCT-116 cells assessed as inhibition of cell growth at 20 uM measured after 72 hrs by MTT assay relative to control; format: functional
[25] = molecular target: T1, Nuclear factor NF-kappa-B complex (Homo sapiens); assay: Inhibition of human NF-kB in human HCT-116 cells assessed as suppression of TNF-alpha induced TAK1 expression at 0.5 to 5 uM pretreated with compounds for 24 hrs followed by TNF-alpha stimulation for 10 mins by Western blot analysis; format: cell-based; conditions: dose 0.5-5 µM, time 1450.0 min
[26] = molecular target: T1, Nuclear factor NF-kappa-B complex (Homo sapiens); assay: Inhibition of human NF-kB in human HCT-116 cells assessed as suppression of TNF-alpha induced IkBalpha expression at 0.5 to 5 uM pretreated with compounds for 24 hrs followed by TNF-alpha stimulation for 10 mins by Western blot analysis; format: cell-based; conditions: dose 0.5-5 µM, time 1450.0 min
HCT-116 [27] = assay: Induction of apoptosis in human HCT-116 cells assessed as early apoptotic cells at 1.8 uM measured by annexinV-FITC/propidium iodide staining based flow cytometry analysis; format: functional
A549 [28] = assay: Induction of apoptosis in human A549 cells assessed as late apoptotic cells at 1.8 uM measured by annexinV-FITC/propidium iodide staining based flow cytometry analysis (reference value: 0.64%); format: functional
A549 [29] = assay: Cell cycle arrest in human A549 cells assessed as accumulation at G2/M phase at 1.2 uM measured after 24 hrs by PI staining based Flow cytometry method (reference value: 10.2%); format: functional

T1 sequence (P19838 whole entry, looked up): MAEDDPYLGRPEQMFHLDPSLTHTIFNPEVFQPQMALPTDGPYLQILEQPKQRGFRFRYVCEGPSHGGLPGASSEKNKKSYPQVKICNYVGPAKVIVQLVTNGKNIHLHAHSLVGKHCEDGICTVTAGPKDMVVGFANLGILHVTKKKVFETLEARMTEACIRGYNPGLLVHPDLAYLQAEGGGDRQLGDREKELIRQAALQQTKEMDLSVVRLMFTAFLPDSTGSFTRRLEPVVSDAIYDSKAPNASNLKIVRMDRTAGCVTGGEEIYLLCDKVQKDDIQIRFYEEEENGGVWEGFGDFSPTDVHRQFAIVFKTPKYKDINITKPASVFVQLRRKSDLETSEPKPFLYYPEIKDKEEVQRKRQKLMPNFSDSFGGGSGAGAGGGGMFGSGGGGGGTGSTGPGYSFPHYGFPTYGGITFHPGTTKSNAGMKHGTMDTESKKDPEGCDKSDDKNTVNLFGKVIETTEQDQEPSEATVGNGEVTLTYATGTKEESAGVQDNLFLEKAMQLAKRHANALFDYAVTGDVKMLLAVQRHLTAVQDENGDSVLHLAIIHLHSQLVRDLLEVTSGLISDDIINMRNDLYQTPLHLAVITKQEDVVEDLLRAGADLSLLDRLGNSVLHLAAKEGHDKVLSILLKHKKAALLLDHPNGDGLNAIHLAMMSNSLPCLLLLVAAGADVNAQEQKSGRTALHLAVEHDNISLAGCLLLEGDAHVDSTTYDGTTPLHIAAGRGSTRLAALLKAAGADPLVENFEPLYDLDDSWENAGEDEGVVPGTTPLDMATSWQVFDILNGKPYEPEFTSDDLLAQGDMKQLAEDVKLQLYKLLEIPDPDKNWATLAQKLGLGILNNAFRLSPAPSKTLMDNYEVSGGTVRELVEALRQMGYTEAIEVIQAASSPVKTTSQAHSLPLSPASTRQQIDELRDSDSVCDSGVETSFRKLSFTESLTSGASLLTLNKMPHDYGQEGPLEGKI
T1 sequence (Q00653 whole entry, looked up): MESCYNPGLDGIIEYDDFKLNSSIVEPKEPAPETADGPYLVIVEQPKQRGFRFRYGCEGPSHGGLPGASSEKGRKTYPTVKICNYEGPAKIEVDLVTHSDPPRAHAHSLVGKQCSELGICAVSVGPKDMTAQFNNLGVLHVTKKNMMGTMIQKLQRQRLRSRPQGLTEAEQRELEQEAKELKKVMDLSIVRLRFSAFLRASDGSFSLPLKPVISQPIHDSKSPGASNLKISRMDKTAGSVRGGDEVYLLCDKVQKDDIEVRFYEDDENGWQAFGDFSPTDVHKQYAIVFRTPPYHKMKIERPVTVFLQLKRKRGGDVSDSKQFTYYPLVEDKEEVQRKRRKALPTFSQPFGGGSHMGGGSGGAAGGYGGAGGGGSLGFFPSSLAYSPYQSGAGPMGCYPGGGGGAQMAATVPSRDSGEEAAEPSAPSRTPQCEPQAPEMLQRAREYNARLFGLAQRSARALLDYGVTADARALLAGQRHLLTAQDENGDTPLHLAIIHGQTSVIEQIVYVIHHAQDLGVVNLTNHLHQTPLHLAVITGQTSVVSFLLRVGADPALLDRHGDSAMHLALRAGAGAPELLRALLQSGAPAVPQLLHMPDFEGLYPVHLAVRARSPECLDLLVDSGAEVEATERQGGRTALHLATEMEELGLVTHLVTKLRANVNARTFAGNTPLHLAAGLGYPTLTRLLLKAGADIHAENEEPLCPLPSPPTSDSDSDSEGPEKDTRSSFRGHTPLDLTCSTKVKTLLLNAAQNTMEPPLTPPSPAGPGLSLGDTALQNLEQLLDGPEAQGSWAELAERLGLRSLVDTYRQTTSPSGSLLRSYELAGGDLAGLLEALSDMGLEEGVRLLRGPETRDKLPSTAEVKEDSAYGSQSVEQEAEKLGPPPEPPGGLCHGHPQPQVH
T1 sequence (Q04206 whole entry, looked up): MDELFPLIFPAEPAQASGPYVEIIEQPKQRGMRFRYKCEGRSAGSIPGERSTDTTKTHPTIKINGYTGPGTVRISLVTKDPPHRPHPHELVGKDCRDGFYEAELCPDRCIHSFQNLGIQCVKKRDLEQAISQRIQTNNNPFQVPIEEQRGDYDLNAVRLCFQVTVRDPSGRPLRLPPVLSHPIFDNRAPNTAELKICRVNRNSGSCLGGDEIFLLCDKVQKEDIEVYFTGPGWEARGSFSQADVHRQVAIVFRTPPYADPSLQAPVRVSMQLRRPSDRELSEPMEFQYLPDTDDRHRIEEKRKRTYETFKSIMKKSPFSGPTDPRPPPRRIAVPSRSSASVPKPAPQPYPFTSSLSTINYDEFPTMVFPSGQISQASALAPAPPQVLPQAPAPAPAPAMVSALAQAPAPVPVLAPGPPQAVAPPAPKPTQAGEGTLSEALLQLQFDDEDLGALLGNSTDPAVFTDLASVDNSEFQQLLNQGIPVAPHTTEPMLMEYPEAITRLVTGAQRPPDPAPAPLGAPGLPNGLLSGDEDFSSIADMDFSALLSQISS
Chain of TAK1-TAB1 fusion protein (O43318 whole entry, looked up, the tested form may be a part): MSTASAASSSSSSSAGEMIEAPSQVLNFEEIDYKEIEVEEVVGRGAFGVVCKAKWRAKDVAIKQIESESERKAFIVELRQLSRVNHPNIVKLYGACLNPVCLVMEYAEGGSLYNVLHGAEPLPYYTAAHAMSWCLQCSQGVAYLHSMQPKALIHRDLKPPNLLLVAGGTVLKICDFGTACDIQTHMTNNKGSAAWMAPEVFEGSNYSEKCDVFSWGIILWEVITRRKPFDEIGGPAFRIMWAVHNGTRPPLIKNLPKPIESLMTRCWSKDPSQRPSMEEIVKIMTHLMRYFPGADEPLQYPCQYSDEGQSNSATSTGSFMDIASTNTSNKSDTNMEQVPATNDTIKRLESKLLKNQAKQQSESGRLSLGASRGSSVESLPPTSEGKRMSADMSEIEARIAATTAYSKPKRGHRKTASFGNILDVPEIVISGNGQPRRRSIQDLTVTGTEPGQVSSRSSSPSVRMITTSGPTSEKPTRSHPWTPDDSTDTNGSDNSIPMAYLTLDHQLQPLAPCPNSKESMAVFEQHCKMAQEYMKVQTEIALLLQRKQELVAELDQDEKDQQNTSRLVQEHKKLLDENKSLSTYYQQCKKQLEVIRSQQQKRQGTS

## CNC(=O)c1cc(Oc2ccc(Nc3nccc(N4CCCCC4)n3)cc2)ccn1
A549 [1]
  Activity: 0.75%
A549 [2]
  Activity: 3.46%
[3]
  inhibition: Active
[4]
  inhibition: Active
TAK1-TAB1 fusion protein
  IC50: 580 nM
A549 [5]
  Activity: 5.7%
A549 [6]
  Activity: 52.78%
A549 [7]
  viability at 1.8 µM: 64.4%
A549 [8]
  Activity: 60.53%
A549 [9]
  Activity: 8.16%
A549 [10]
  Activity: 30.57%
A549 [11]
  Activity: 23.56%
A549 [12]
  IC50: 890 nM
A549 [13]
  Activity: 0.74%
A549 [14]
  Activity: 25.4%
MDA-MB-231
  inhibition at 20 µM: 52.3%
MAP3K7 [15]
  inhibition: Active
[16]
  inhibition: Active
HCT-116 [17]
  Activity: 36.72%
A549 [18]
  viability at 0.6 µM: 87.6%
A549 [19]
  Activity: 0.71%
MAP3K7 [20]
  inhibition: Active
[21]
  inhibition: Active
A549 [22]
  Activity: 18.83%
A549 [23]
  Activity: 16.65%
HCT-116 [24]
  inhibition at 20 µM: 69.8%
[25]
  inhibition: Active
[26]
  inhibition: Active
HCT-116 [27]
  Activity: 71.4%
A549 [28]
  Activity: 9.54%
A549 [29]
  Activity: 23.68%
